Test: recombinant barcode read abundance after kanamycin selection (control-corrected) (log10(CPM+1)); higher = more efficient recombination; sequences stand for … in AGTGCAGAGAAAATCGGCCAGTTTTCTCTGCCTGCAGTCCGCATGCCGT…AGATTTATGCAGCGGACTGCCTTTCTCCCAAAGTGATAAACCGGACAGTATCATGGACCGGTTTTCCCGGTAATCCGTATTTGCAAGGTTGGTTTCACT; site = the 11-nt target
Method in brief: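 In E. coli, a pooled library matched targets to IS621 bridge RNA target-binding loops and was introduced alongside a donor plasmid. Cells went onto chloramphenicol/ampicillin/kanamycin with 0.1 mM IPTG or onto chloramphenicol/ampicillin LB agar as control, in duplicate. Recombination efficiency, from recombinant-junction barcodes as counts per million, is averaged and control-corrected. It is reported as log10(CPM+1).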
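Also: IS621 recombinase and bridge RNA in Escherichia coli cells.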

Sequence | recombinant barcode read abundance (log10)
GCCTGAGCTTGGGTTCTAACCTGTTGCCT (site GCATGAGCTAG) | 0
GCCTGAGCTTGGGTTCTAACCTGTTGCCT (site GCCTGAGCTAG) | 0.303
GCCTGAGCTTGGGTTCTAACCTGTTGCCT (site GCGTGAGCTAG) | 0.272
GCCTGAGCTTGGGTTCTAACCTGTTGCCT (site GCTTGAGCTAG) | 0
GCCTGGGCTTGGGTTCTAACCTGTTGCCG (site GCCAGGGCTCG) | 0.0298
GCCTGGGCTTGGGTTCTAACCTGTTGCCG (site GCCCGGGCTCG) | 0.516
GCCTGGGCTTGGGTTCTAACCTGTTGCCG (site GCCGGGGCTCG) | 0.114
GCCTGGGCTTGGGTTCTAACCTGTTGCCG (site GCCTGGGCTCG) | 0.72
GCCTGGGCTTGGGTTCTAACCTGTTGCCT (site GCCTGGGCTAG) | 0.317
GCCTGGGCTTGGGTTCTAACCTGTTGCCT (site GCCTTGGCTAG) | 0.438
GCCTTGGCTTGGGTTCTAACCTGTTGCCT (site GCCTGGGCTAG) | 0.195
GCCTTGGCTTGGGTTCTAACCTGTTGCCT (site GCCTTGGCTAG) | 0.572
GCGAACCCTTGGGTTCTAACCTGTTGCTT (site GCGAACCCTAA) | 1.47
GCGAACCCTTGGGTTCTAACCTGTTGCTT (site TCGAACCCTAA) | 0.0595
GCGACTCCTTGGGTTCTAACCTGTTGCTT (site GCGACTCCTAA) | 0.0299
GCGACTCCTTGGGTTCTAACCTGTTGCTT (site GCGACTCCTAG) | 0.0916
GCGCACACTTGGGTTCTAACCTGTTGCCT (site ACGCACACTAG) | 0.851
GCGCACACTTGGGTTCTAACCTGTTGCCT (site CCGCACACTAG) | 0.206
GCGCACACTTGGGTTCTAACCTGTTGCCT (site GCGCACACTAG) | 1.05
GCGCACACTTGGGTTCTAACCTGTTGCCT (site TCGCACACTAG) | 0.319
GCGCATCCTTGGGTTCTAACCTGTTGCCT (site GCGAATCCTAG) | 0.719
GCGCATCCTTGGGTTCTAACCTGTTGCCT (site GCGCATCCTAG) | 0.753

Sequence | recombinant barcode read abundance (log10)
GCGCATCCTTGGGTTCTAACCTGTTGCCT (site GCGGATCCTAG) | 0.306
GCGCATCCTTGGGTTCTAACCTGTTGCCT (site GCGTATCCTAG) | 0.0569
GCGCGTTCTTGGGTTCTAACCTGTTGCCT (site GCGAGCTCTAG) | 0.054
GCGCGTTCTTGGGTTCTAACCTGTTGCCT (site GCGCGTTCTAG) | 1.2
GCGGCTTCTTGGGTTCTAACCTGTTGCCT (site GAGGCTTCTAG) | 0.0638
GCGGCTTCTTGGGTTCTAACCTGTTGCCT (site GCGGCTTCTAG) | 0.868
GCGGCTTCTTGGGTTCTAACCTGTTGCCT (site GGGGCTTCTAG) | 0.0151
GCGGCTTCTTGGGTTCTAACCTGTTGCCT (site GTGGCTTCTAG) | 0.121
GCGTCGGCTTGGGTTCTAACCTGTTGCCT (site GCATCGGCTAG) | 0.474
GCGTCGGCTTGGGTTCTAACCTGTTGCCT (site GCCTCGGCTAG) | 0.177
GCGTCGGCTTGGGTTCTAACCTGTTGCCT (site GCGTCGGCTAG) | 0.183
GCGTCGGCTTGGGTTCTAACCTGTTGCCT (site GCTTCGGCTAG) | 0.405
GCGTGCCCTTGGGTTCTAACCTGTTGCCT (site CCGTGCCCTAG) | 0.552
GCGTGCCCTTGGGTTCTAACCTGTTGCCT (site GCGTGCCCTAG) | 0.82
GCTAACCCTTGGGTTCTAACCTGTTGCCT (site ACTAAACCTAG) | 0.5
GCTAACCCTTGGGTTCTAACCTGTTGCCT (site GCTAACCCTAG) | 1.18
GCTAGTTCTTGGGTTCTAACCTGTTGCTT (site ACTCGTTCTAA) | 0.0742
GCTAGTTCTTGGGTTCTAACCTGTTGCTT (site GCTAGTTCTAA) | 0.351
GCTCATACTTGGGTTCTAACCTGTTGCCT (site CACGCGCCTCC) | 0.0433
GCTCATACTTGGGTTCTAACCTGTTGCCT (site GCTCATACTAG) | 0.714
GCTCTAGCTTGGGTTCTAACCTGTTGCTA (site ACTCTAGCTGA) | 0.143
GCTCTAGCTTGGGTTCTAACCTGTTGCTA (site GCTCTAGCTTA) | 0.515

Sequence | recombinant barcode read abundance (log10)
GCTGCGACTTGGGTTCTAACCTGTTGCCT (site GCAGCGACTAG) | 0.17
GCTGCGACTTGGGTTCTAACCTGTTGCCT (site GCCGCGACTAG) | 0.101
GCTGCGACTTGGGTTCTAACCTGTTGCCT (site GCGGCGACTAG) | 0.0147
GCTGCGACTTGGGTTCTAACCTGTTGCCT (site GCTGCGACTAG) | 0.972
GCTGCGCCTTGGGTTCTAACCTGTTGCCT (site GCCGGGCCTAG) | 0.225
GCTGCGCCTTGGGTTCTAACCTGTTGCCT (site GCTGCGCCTAG) | 1.05
GCTGGGTCTTGGGTTCTAACCTGTTGCTT (site GCAGGGTCTAA) | 0.466
GCTGGGTCTTGGGTTCTAACCTGTTGCTT (site GCCGGGTCTAA) | 0.284
GCTGGGTCTTGGGTTCTAACCTGTTGCTT (site GCGGGGTCTAA) | 0.0202
GCTGGGTCTTGGGTTCTAACCTGTTGCTT (site GCTGGGTCTAA) | 1.65
GCTTGGACTTGGGTTCTAACCTGTTGCAG (site CCTTGGACTTT) | 0.175
GCTTGGACTTGGGTTCTAACCTGTTGCAG (site GCTTGGACTCT) | 1.72
GGAAGGCCTTGGGTTCTAACCTGTTGCTT (site GGAAGGCCTAA) | 0.221
GGAAGGCCTTGGGTTCTAACCTGTTGCTT (site TTGGTCACTTG) | 0.0545
GGACACTCTTGGGTTCTAACCTGTTGCTA (site GGACACTCTAG) | 2.32
GGACACTCTTGGGTTCTAACCTGTTGCTA (site GGACACTCTTA) | 2.15
GGACATTCTTGGGTTCTAACCTGTTGCTT (site GGACATTCTAA) | 0.319
GGACATTCTTGGGTTCTAACCTGTTGCTT (site TGACATTCTAA) | 0.0458
GGACCCTCTTGGGTTCTAACCTGTTGCAC (site GGACCCTCTGT) | 1.76
GGACCCTCTTGGGTTCTAACCTGTTGCAC (site TACAAGACTAC) | 0.0797
GGACCTCCTTGGGTTCTAACCTGTTGCTT (site GGACCTCCTAA) | 1.33
GGACCTCCTTGGGTTCTAACCTGTTGCTT (site GGACCTCCTAC) | 0.221

Sequence | recombinant barcode read abundance (log10)
GGACCTCCTTGGGTTCTAACCTGTTGCTT (site GGACCTCCTAG) | 1.27
GGACCTCCTTGGGTTCTAACCTGTTGCTT (site GGACCTCCTAT) | 1.32
GGACGCACTTGGGTTCTAACCTGTTGCGG (site CCTAAGCCTAT) | 0.604
GGACGCACTTGGGTTCTAACCTGTTGCGG (site GGACGCACTCC) | 2.4
GGACGCCCTTGGGTTCTAACCTGTTGCCT (site GGACGACCTAG) | 0.427
GGACGCCCTTGGGTTCTAACCTGTTGCCT (site GGACGCCCTAG) | 1.35
GGACGCCCTTGGGTTCTAACCTGTTGCCT (site GGACGGCCTAG) | 0.186
GGACGCCCTTGGGTTCTAACCTGTTGCCT (site GGACGTCCTAG) | 0.426
GGACGTCCTTGGGTTCTAACCTGTTGCCT (site GGACGACCTAG) | 0.0935
GGACGTCCTTGGGTTCTAACCTGTTGCCT (site GGACGCCCTAG) | 0.369
GGACGTCCTTGGGTTCTAACCTGTTGCCT (site GGACGGCCTAG) | 0.0468
GGACGTCCTTGGGTTCTAACCTGTTGCCT (site GGACGTCCTAG) | 0.734
GGAGAGTCTTGGGTTCTAACCTGTTGCCT (site GAAGAGTCTAG) | 2.17
GGAGAGTCTTGGGTTCTAACCTGTTGCCT (site GCAGAGTCTAG) | 0.995
GGAGAGTCTTGGGTTCTAACCTGTTGCCT (site GGAGAGTCTAG) | 2.45
GGAGAGTCTTGGGTTCTAACCTGTTGCCT (site GTAGAGTCTAG) | 1.09
GGAGGAACTTGGGTTCTAACCTGTTGCCT (site GGAGGAACTAG) | 2.39
GGAGGAACTTGGGTTCTAACCTGTTGCCT (site GGAGGTACTAG) | 0.1
GGAGGACCTTGGGTTCTAACCTGTTGCTT (site GGAAGACCTTA) | 0.19
GGAGGACCTTGGGTTCTAACCTGTTGCTT (site GGAGGACCTAA) | 2.4

Reference: the supplement of paper PMC11208160
